Bridge positions count the residues as written; N and C are the ends. Peptide text beside a SMILES is read from it.
What follows are compounds tested against T1, soluble human FcRn (Homo sapiens, UniProt P55899) (assay: SPR (Biacore) affinity of peptides for immobilized soluble human FcRn). Settings: Table 2.
T1 construct: Soluble human FcRn was expressed and purified by Biogen-Idec as previously described (29)
Format: binding
Description: SPR analyses were conducted using a Biacore 3000 or T100 instrument. Research-grade CM5 sensor chips and all coupling reagents for immobilization were purchased from Biacore. All proteins were cross-linked to the dextran surface of a CM5 sensor chip by standard amine coupling chemistry as recommended by Biacore. […] Binding experiments were performed at pH 6.0 or 7.4 using 50 mM phosphate, 100 mM sodium chloride and 0.01% surfactant P20. […] Bound albumin protein was then allowed to dissociate from the chip for 5 minutes with running buffer. Any remaining albumin was removed from the chip with a 60 second injection (2 cycles) of pH 8.0 Tris-HCl regeneration buffer (1 M Tris pH 8.0) at 25 μL/min flow rate. The binding responses recorded near the end of the association phase were plotted as a function of concentration. Equilibrium dissociation constants (KD), were derived from sensorgrams using the 1:1 binding model of BIAevaluation software 4.1.

Compound | Kd Ratio 7.4/6.0
CSCC[C@H](NC(=O)[C@H](Cc1ccc(O)cc1)NC(C)=O)C(=O)N[C@@H](C)C(=O)N[C@H]1CSSC[C@@H](C(=O)N[C@@H](CCC(=O)O)C(=O)N[C@@H](Cc2ccc(O)cc2)C(=O)N[C@H](C(N)=O)C(C)C)NC(=O)[C@H](CO)NC(=O)[C@H](Cc2ccccc2)NC(=O)CNC(=O)[C@H](CC(=O)O)NC(=O)[C@H](CC(=O)O)NC(=O)[C@H](Cc2c[nH]c3ccccc23)NC(=O)[C@H](CCCCN)NC1=O [SYN1146] (Ac-YMACKWDDGFSCEYV-NH2; disulfide 4-12 (inferred)) | 34.4
CSCC[C@H](NC(=O)[C@@H](NC(C)=O)C(C)C)C(=O)N[C@@H](Cc1c[nH]cn1)C(=O)N[C@H]1CSSC[C@@H](C(=O)N[C@@H](CCC(=O)O)C(=O)N[C@@H](CCC(N)=O)C(=O)NCC(N)=O)NC(=O)[C@H](CCCCN)NC(=O)[C@H](Cc2ccccc2)NC(=O)[C@H](CCC(=O)O)NC(=O)[C@H](CCC(=O)O)NC(=O)[C@H](CC(=O)O)NC(=O)[C@H](Cc2c[nH]c3ccccc23)NC(=O)[C@H](Cc2ccccc2)NC1=O [SYN1258] (Ac-VMHCFWDEEFKCEQG-NH2; disulfide 4-12 (inferred)) | 65
CSCC[C@H](NC(=O)[C@H](Cc1ccc(O)cc1)NC(C)=O)C(=O)N[C@@H](Cc1c[nH]cn1)C(=O)N[C@H]1CSSC[C@@H](C(=O)N[C@@H](CC(=O)O)C(=O)N[C@@H](CCC(N)=O)C(=O)NCC(N)=O)NC(=O)[C@H](CCCCN)NC(=O)[C@H](Cc2ccccc2)NC(=O)[C@H](CCC(=O)O)NC(=O)[C@H](CCC(=O)O)NC(=O)[C@H](CC(=O)O)NC(=O)[C@H](Cc2c[nH]c3ccccc23)NC(=O)[C@H](Cc2ccccc2)NC1=O [SYN1256] (Ac-YMHCFWDEEFKCDQG-NH2; disulfide 4-12 (inferred)) | 69

Further lines, results first:

Kd Ratio 7.4/6.0 | Compound
82 | CSCC[C@H](NC(=O)[C@@H](NC(C)=O)C(C)C)C(=O)N[C@@H](Cc1c[nH]cn1)C(=O)N[C@H]1CSSC[C@@H](C(=O)N[C@@H](CC(=O)O)C(=O)N[C@@H](Cc2ccc(O)cc2)C(=O)NCC(N)=O)NC(=O)[C@H](CCCNC(=N)N)NC(=O)[C@H](Cc2ccccc2)NC(=O)[C@H](CCC(=O)O)NC(=O)[C@H](CCC(=O)O)NC(=O)[C@H](CC(=O)O)NC(=O)[C@H](Cc2c[nH]c3ccccc23)NC(=O)[C@H](Cc2ccccc2)NC1=O [SYN1381] (Ac-VMHCFWDEEFRCDYG-NH2; disulfide 4-12 (inferred))
71 | CSCC[C@@H]1NC(=O)[C@H](CCC(=O)O)NC(=O)[C@H](CCC(=O)O)NC(=O)[C@H](CC(=O)O)NC(=O)[C@H](Cc2c[nH]c3ccccc23)NC(=O)[C@H](Cc2c[nH]c3ccccc23)NC(=O)[C@@H](NC(=O)[C@H](CCCCN)NC(=O)[C@H](CCSC)NC(=O)[C@@H](NC(C)=O)C(C)C)CSSC[C@@H](C(=O)N[C@@H](CCC(=O)O)C(=O)N[C@@H](C)C(=O)N[C@@H](Cc2ccccc2)C(N)=O)NC(=O)[C@H](CC(C)C)NC1=O [SYN1538] (Ac-VMKCWWDEEMLCEAF-NH2; disulfide 4-12 (inferred))
35 | CSCC[C@@H]1NC(=O)[C@H](CCC(=O)O)NC(=O)[C@H](CCC(=O)O)NC(=O)[C@H](CC(=O)O)NC(=O)[C@H](Cc2c[nH]c3ccccc23)NC(=O)[C@H](Cc2ccccc2)NC(=O)[C@@H](NC(=O)[C@H](CCCCN)NC(=O)[C@H](CCSC)NC(=O)[C@@H](NC(C)=O)C(C)C)CSSC[C@@H](C(=O)N[C@@H](CCCNC(=N)N)C(=O)N[C@@H](C)C(=O)N[C@@H](Cc2ccccc2)C(N)=O)NC(=O)[C@H](CC(C)C)NC1=O [SYN1535] (Ac-VMKCFWDEEMLCRAF-NH2; disulfide 4-12 (inferred))

Same assay, conditions: Table 2; pH 7.4; data only 100 uM, therefore Kd may be higher; read-out: Kd, pH 7.4 Biacore

Kd [µM] | Compound
8.6 | CSCC[C@H](NC(=O)[C@H](Cc1ccc(O)cc1)NC(C)=O)C(=O)N[C@@H](C)C(=O)N[C@H]1CSSC[C@@H](C(=O)N[C@@H](CCC(=O)O)C(=O)N[C@@H](Cc2ccc(O)cc2)C(=O)N[C@H](C(N)=O)C(C)C)NC(=O)[C@H](CO)NC(=O)[C@H](Cc2ccccc2)NC(=O)CNC(=O)[C@H](CC(=O)O)NC(=O)[C@H](CC(=O)O)NC(=O)[C@H](Cc2c[nH]c3ccccc23)NC(=O)[C@H](CCCCN)NC1=O [SYN1146] (Ac-YMACKWDDGFSCEYV-NH2; disulfide 4-12 (inferred))

Reference: patent US10588935B2, “FC receptor (FcRn) binding peptides and uses thereof” (THE BRIGHAM AND WOMEN'S HOSPITAL, INC., priority 2013, dated 2020)
